Target: human PAD4 (hPAD4) (Homo sapiens, UniProt Q9UM07)
Experiment: RFMS human PAD4 functional assay (rapid-fire mass spectrum)
Format: biochemical
Details: 5 nM hPAD4 enzyme, 250 μM BAEE, 50 μM Calcium; 30 min preincubation, 90 min reaction at 37° C.
Procedure, shortened: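 PAD4 (10 nM) preincubated 30 min with compound (top final 50 μM), then BAEE substrate added in pH 7.5 HEPES buffer with DTT, 50 μM calcium, TPEN; 90 min at 37° C. After TCA quench, citrulline derivatized with phenyl glyoxal (4 mM final, 30 min, 37° C) and quantified by RapidFire MS against internal standard.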

Chain of human PAD4 (hPAD4) (Q9UM07 whole entry): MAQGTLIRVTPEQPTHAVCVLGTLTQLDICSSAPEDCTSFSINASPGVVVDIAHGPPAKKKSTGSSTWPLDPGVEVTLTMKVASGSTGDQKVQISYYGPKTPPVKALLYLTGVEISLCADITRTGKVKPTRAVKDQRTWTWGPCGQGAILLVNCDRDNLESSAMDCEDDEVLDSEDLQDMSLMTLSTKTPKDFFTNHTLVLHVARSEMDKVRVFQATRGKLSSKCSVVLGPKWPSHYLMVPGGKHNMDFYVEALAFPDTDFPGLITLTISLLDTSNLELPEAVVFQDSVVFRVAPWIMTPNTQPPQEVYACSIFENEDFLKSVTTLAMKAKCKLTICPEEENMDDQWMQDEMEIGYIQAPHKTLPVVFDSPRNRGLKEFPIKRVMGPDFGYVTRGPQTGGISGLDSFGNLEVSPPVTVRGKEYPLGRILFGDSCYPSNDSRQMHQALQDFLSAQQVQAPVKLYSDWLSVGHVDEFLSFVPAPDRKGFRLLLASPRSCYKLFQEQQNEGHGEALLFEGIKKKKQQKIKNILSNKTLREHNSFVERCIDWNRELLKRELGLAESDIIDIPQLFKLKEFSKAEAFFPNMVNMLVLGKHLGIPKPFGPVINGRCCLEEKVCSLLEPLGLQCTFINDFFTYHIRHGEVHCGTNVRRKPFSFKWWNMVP

Structure (SMILES) | IC50 [nM]
COc1cc(C(=O)N2CC3CCC2[C@@H]3N)cc2nc(-c3cc4cccnc4n3CC3CC3)n(Cc3cnn(-c4cccnc4)c3)c12 (stereo partly drawn) [Example 395, (7R)-2-{2-[1-(cyclopropylmethyl)-1H-pyrrolo[2,3-b]pyridin-2-yl]-7-methoxy-1-{[1-(pyridin-3-yl)-1H-pyrazol-4-yl]methyl}-1H-1,3-benzodiazole-5-carbonyl}-2-azabicyclo[2.2.1]heptan-7-amine] | 50
COc1cc(C(=O)N2CC3CCC2[C@@H]3N)cc2nc(-c3cc4ccccc4n3CC3CC3)n(CC3CCS(=O)(=O)C3)c12 (stereo partly drawn) [Example 290, ((7R)-7-amino-2-azabicyclo[2.2.1]heptan-2-yl)(2-(1-(cyclopropylmethyl)-1H-indol-2-yl)-1-((1,1-dioxidotetrahydrothiophen-3-yl)methyl)-7-methoxy-1H-benzo[d]imidazol-5-yl)methanone] | 1590
COc1cc(C(=O)N2C[C@H](N)C[C@@H](F)C2)cc2nc(-c3cc4ccccc4n3CC3CC3)n(Cc3csc(C)n3)c12 [Example 285, (3R,5R)-1-{2-[1-(cyclopropylmethyl)-1H-indol-2-yl]-7-methoxy-1-[(2-methyl-1,3-thiazol-4-yl)methyl]-1H-1,3-benzodiazote-5-carbonyl}-5-fluoropiperidin-3-amine] | 1020
COc1cc(C(=O)N2C[C@H](N)C[C@@H](F)C2)cc2nc(-c3cc4ccccc4n3CC3CC3)n(Cc3ccncc3)c12 [Example 287, (3R,5R)-1-{2-[1-(cyclopropylmethyl)-1H-indol-2-yl]-7-methoxy-1-[(pyridin-4-yl)methyl]-1H-1,3-benzodiazole-5-carbonyl}-5-fluoropiperidin-3-amine] | 1230
COc1cc(C(=O)N2C[C@H]3CC[C@@H]2[C@@H]3N)cc2nc(-c3cc4cccnc4n3CC3CC3)n(CC3CN(c4nccnc4C#N)C3)c12 [Example 15, 3-[3-({5-[(1R,4R,7R)-7-amino-2-azabicyclo[2.2.1]heptane-2-carbonyl]-2-[1-(cyclopropylmethyl)-1H-pyrrolo[2,3-b]pyridin-2-yl]-7-methoxy-1H-1,3-benzodiazol-1-yl}methyl)azetidin-1-yl]pyrazine-2-carbonitrile] | 47
COc1cc(C(=O)N2C[C@H]3CC[C@@H]2[C@@H]3N)cc2nc(-c3cc4cccnc4n3CC3CC3)n(C3CCN(C(=O)c4ccnc(C#N)c4)CC3)c12 [Example 240, 4-(4-{5-[(1R,4R,7R)-7-amino-2-azabicyclo[2.2.1]heptane-2-carbonyl]-2-[1-(cyclopropylmethyl)-1H-pyrrolo[2,3-b]pyridin-2-yl]-7-methoxy-1H-1,3-benzodiazol-1-yl}piperidine-1-carbonyl)pyridine-2-carbonitrile] | 1440
COc1cc(C(=O)N2C[C@H]3CC[C@@H]2[C@@H]3N)cc2nc(-c3cc4cccnc4n3CC3CC3)n(CC3CN(C(=O)c4ccnc(Cl)c4)C3)c12 [Example 107, (1R,4R,7R)-2-(1-{[1-(2-chloropyridine-4-carbonyl)azetidin-3-yl]methyl}-2-[1-(cyclopropylmethyl)-1H-pyrrolo[2,3-b]pyridin-2-yl]-7-methoxy-1H-1,3-benzodiazole-5-carbonyl)-2-azabicyclo[2.2.1]heptan-7-amine] | 33
COc1cc(C(=O)N2C[C@H]3CC[C@@H]2[C@@H]3N)cc2nc(-c3cc4cccnc4n3CC3CC3)n(CC3CN(c4ccnc(C#N)n4)C3)c12 [Example 5, 4-[3-({5-[(1R,4R,7R)-7-amino-2-azabicyclo[2.2.1]heptane-2-carbonyl]-2-[1-(cyclopropylmethyl)-1H-pyrrolo[2,3-b]pyridin-2-yl]-7-methoxy-1H-1,3-benzodiazol-1-yl}methyl)azetidin-1-yl]pyrimidine-2-carbonitrile] | 51
COc1cc(C(=O)N2C[C@H](N)C[C@@H](F)C2)cc2nc(-c3cc4cccnc4n3CC3CC3)n(Cc3cc(C)nn3C)c12 [Example 515, (3R,5R)-1-{2-[1-(cyclopropylmethyl)-1H-pyrrolo[2,3-b]pyridin-2-yl]-1-[(1,3-dimethyl-1H-pyrazol-5-yl)methyl]-7-methoxy-1H-1,3-benzodiazole-5-carbonyl}-5-fluoropiperidin-3-amine] | 501
COc1cc(C(=O)N2CC3CCC2[C@@H]3N)cc2nc(-c3cc4ccc(C(C)O)cc4n3CC3CC3)n(CC3CN(C(=O)c4ccc(C#N)cc4)C3)c12 (stereo partly drawn) [Example 523, 4-[3-({5-[(7R)-7-amino-2-azabicyclo[2.2.1]heptane-2-carbonyl]-2-[1-(cyclopropylmethyl)-6-(1-hydroxyethyl)-1H-indol-2-yl]-7-methoxy-1H-1,3-benzodiazol-1-yl}methyl)azetidine-1-carbonyl]benzonitrile] | 34
COc1cc(C(=O)N2C[C@H]3CC[C@@H]2[C@@H]3N)cc2nc(-c3cc4ccccc4n3CC3CC3)n(Cc3cnn(C)c3)c12 [Example 242, (1R,4R,7R)-2-{2-[1-(cyclopropylmethyl)-1H-indol-2-yl]-7-methoxy-1-[(1-methyl-1H-pyrazol-4-yl)methyl]-1H-1,3-benzodiazole-5-carbonyl}-2-azabicyclo[2.2.1]heptan-7-amine] | 41
COc1cc(C(=O)N2C[C@H](N)C[C@@H](F)C2)cc2nc(-c3cc4ccccc4n3CC3CC3)n(CCC3CCS(=O)(=O)CC3)c12 [Example 249, ((3R,5R)-3-amino-5-fluoropiperidin-1-yl)(2-(1-(cyclopropylmethyl)-1H-indol-2-yl)-1-(2-(1,1-dioxidotetrahydro-2H-thiopyran-4-yl)ethyl)-7-methoxy-1H-benzo[d]imidazol-5-yl)methanone] | 35
COc1cc(C(=O)N2C[C@H]3CC[C@@H]2[C@@H]3N)cc2nc(-c3cc4cccnc4n3CC3CC3)n(CC3CN(C(=O)c4cc[nH]c(=O)c4)C3)c12 [Example 182, 4-[3-({5-[(1R,4R,7R)-7-amino-2-azabicyclo[2.2.1]heptane-2-carbonyl]-2-[1-(cyclopropylmethyl)-1H-pyrrolo[2,3-b]pyridin-2-yl]-7-methoxy-1H-1,3-benzodiazol-1-yl}methyl)azetidine-1-carbonyl]-1,2-dihydropyridin-2-one] | 204
COc1cc(C(=O)N2CC3CCC2[C@@H]3N)cc2nc(-c3cc4cccnc4n3CC3CC3)n(C[C@@H]3CCN(c4ccnc(C#N)n4)C3)c12 (stereo partly drawn) [Example 205, 4-[(3R)-3-({5-[(1R,4R,7R)-7-amino-2-azabicyclo[2.2.1]heptane-2-carbonyl]-2-[1-(cyclopropylmethyl)-1H-pyrrolo[2,3-b]pyridin-2-yl]-7-methoxy-1H-1,3-benzodiazol-1-yl}methyl)pyrrolidin-l-yl]pyrimidine-2-carbonitrile] | 37

The next compounds have a lower IC50 than those just listed; values first:

IC50 [nM] | Structure (SMILES)
16 | N[C@@H]1[C@@H]2CC[C@H]1N(C(=O)c1cc(F)c3c(c1)nc(-c1cc4ccccc4n1CC1CC1)n3CC1CN(C(=O)c3ccncc3)C1)C2 [Example 95, (1R,4R,7R)-2-{2-[1-(cyclopropylmethyl)-1H-indol-2-yl]-7-fluoro-1-{[1-(pyridine-4-carbonyl)azetidin-3-yl]methyl}-1H-1,3-benzodiazole-5-carbonyl}-2-azabicyclo[2.2.1]heptan-7-amine]
26 | COc1cc(C(=O)N2C[C@H]3CC[C@@H]2[C@@H]3N)cc2nc(-c3cc4ccccc4n3CC3CC3)n(CC3CN(C(=O)c4ccccc4F)C3)c12 [Example 164, (1R,4R,7R)-2-{2-[1-(cyclopropylmethyl)-1H-indol-2-yl]-1-{[1-(2-fluorobenzoyl)azetidin-3-yl]methyl}-7-methoxy-1H-1,3-benzodiazole-5-carbonyl}-2-azabicyclo[2.2.1]heptan-7-amine]
31 | COc1cc(C(=O)N2C[C@H]3CC[C@@H]2[C@@H]3N)cc2nc(-c3cc4cccnc4n3CC3CC3)n(CC3CN(c4ccnc(C5CC5)n4)C3)c12 [Example 105, (1R,4R,7R)-2-{2-[1-(cyclopropylmethyl)-1H-pyrrolo[2,3-b]pyridin-2-yl]-1-{[1-(2-cyclopropylpyrimidin-4-yl)azetidin-3-yl]methyl}-7-methoxy-1H-1,3-benzodiazole-5-carbonyl}-2-azabicyclo[2.2.1]heptan-7-amine]
14 | COc1cc(C(=O)N2CC3CCC2[C@@H]3N)cc2nc(-c3cc4ccccc4n3CC3CC3)n(Cc3cnn(-c4ccccn4)c3)c12 (stereo partly drawn) [Example 348, (7R)-2-{2-[1-(cyclopropylmethyl)-1H-indol-2-yl]-7-methoxy-1-{[1-(pyridin-2-yl)-1H-pyrazol-4-yl]methyl}-1H-1,3-benzodiazoie-5-carbonyl}-2-azabicyclo[2.2.1]heptan-7-amine]
23 | COc1cc(C(=O)N2CC3CCC2[C@@H]3N)cc2nc(-c3cc4ccccc4n3CC3CC3)n(Cc3cnn(-c4cncc(F)c4)c3)c12 (stereo partly drawn) [Example 359, (7R)-2-{2-[1-(cyclopropylmethyl)-1H-indol-2-yl]-1-{[1-(5-fluoropyridin-3-yl)-1H-pyrazol-4-yl]methyl}-7-methoxy-1H-1,3-benzodiazole-5-carbonyl}-2-azabicyclo[2.2.1]heptan-7-amine]
30 | COc1cc(C(=O)N2CC3CCC2[C@@H]3N)cc2nc(-c3cc4cccnc4n3CC3CC3)n(CC3CN(C(=O)c4c(F)cccc4F)C3)c12 (stereo partly drawn) [Example 431, (7R)-2-{2-[1-(cyclopropylmethyl)-1H-pyrrolo[2,3-b]pyridin-2-yl]-1-{[1-(2,6-difluorobenzoyl)azetidin-3-yl]methyl}-7-methoxy-1H-1,3-benzodiazole-5-carbonyl}-2-azabicyclo[2.2.1]heptan-7-amine]
14 | COc1cc(C(=O)N2C[C@H]3CC[C@@H]2[C@@H]3N)cc2nc(-c3cc4ccccc4n3CC3CC3)n(CC3CN(C(=O)c4nnn(C)n4)C3)c12 [Example 142, (1R,4R,7R)-2-{2-[1-(cyclopropylmethyl)-1H-indol-2-yl]-7-methoxy-1-{[1-(2-methyl-2H-1,2,3,4-tetrazole-5-carbonyl)azetidin-3-yl]methyl}-1H-1,3-benzodiazole-5-carbonyl}-2-azabicyclo[2.2.1]heptan-7-amine]
